Laboratory results reported in patent publication US12552799B2, “Triazolone compounds” (Nxera Pharma UK Limited, priority 2020, dated 2026).

Experiments:
[1] = molecular target: human adenosine A1 receptor (Homo sapiens (Human), UniProt P30542); experiment: Adenosine receptor binding assay, A1 ([3H]DPCPX inhibition binding on membranes); settings: 1 nM [3H]DPCPX, 25° C., 1 h, Ki from IC50 by Cheng-Prusoff
Experimental: (§1) Inhibition binding assays were performed using 0.2 μg of membranes prepared from HEK293 cells infected with BacMam human adenosine A2A receptor or 1.4 μg of membranes prepared from HEK293 cells infected with BacMam human adenosine A1 receptor. Membranes were incubated in 50 mM Tris-HCl (HEK293-hA2A; pH 7.4) or 50 mM Tris-HCl, 100 mM NaCl, 10 mM MgCl2 (CHO-hA1; pH 7.4) in the presence of varying concentrations of test compound and 1 nM [^3H]ZM241385 (HEK293-hA2A) or [^3H]DPCPX (CHO-hA1) at 25° C. for 1 h. The assay was then terminated by rapid filtration onto GF/B grade Unifilter plates using a TomTec cell harvester, followed by 5×0.5 ml washes with ddH2O. Nonspecific binding was defined in the presence of 1 μM CGS15943 (HEK293-hA2A) or 1 μM DPCPX (CHO-hA1). Bound radioactivity was determined by liquid scintillation counting and inhibition curves were analysed using a four-parameter logistic equation. IC50 values were converted to Ki values with the Cheng-Prusoff equation using a KD value derived from saturation binding studies.

[2] = molecular target: human CB-1 cannabinoid receptor (Homo sapiens (Human), UniProt P21554); experiment: CB-1 receptor radioligand binding assay ([3H]CP 55940, transfected CHO cell membranes); settings: 0.5 nM [3H]CP 55940, 120 min at 37° C., agonist site
human CB-1 cannabinoid receptor, sequence (P21554 whole entry): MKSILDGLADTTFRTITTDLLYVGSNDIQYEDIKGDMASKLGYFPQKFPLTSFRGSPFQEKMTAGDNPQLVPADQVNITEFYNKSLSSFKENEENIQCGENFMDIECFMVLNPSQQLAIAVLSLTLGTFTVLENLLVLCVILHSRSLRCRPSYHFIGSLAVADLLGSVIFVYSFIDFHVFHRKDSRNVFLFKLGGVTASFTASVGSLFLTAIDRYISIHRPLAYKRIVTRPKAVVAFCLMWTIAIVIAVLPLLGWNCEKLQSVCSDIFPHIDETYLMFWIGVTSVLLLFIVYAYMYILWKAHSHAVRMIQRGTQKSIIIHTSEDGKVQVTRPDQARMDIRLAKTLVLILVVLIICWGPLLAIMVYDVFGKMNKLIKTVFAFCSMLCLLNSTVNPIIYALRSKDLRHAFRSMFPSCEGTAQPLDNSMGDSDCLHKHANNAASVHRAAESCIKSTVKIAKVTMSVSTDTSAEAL
Experimental: Nonspecific binding is determined in the presence of 10 μM WIN 55212-2.
Following incubation, the samples are filtered rapidly under vacuum through glass fiber filters (GF/B, Packard) presoaked with 0.3% PEI and rinsed several times with an ice-cold buffer containing 50 mM Tris-HCl (pH 7.4) and 0.5% BSA using a 96-sample cell harvester (Unifilter, Packard). The filters are dried then counted for radioactivity in a scintillation counter (Topcount, Packard) using a scintillation cocktail (Microscint O, Packard).
The standard reference compound is CP 55940 which is tested in each experiment at several concentrations to obtain a competition curve from which its IC50 is calculated.
In Table 5, blank entries for Ki indicate that the observed binding was too weak to measure a Ki value.

[3] = molecular target: human adenosine A2A receptor (Homo sapiens (Human), UniProt P29274); experiment: Adenosine receptor binding assay, A2A ([3H]ZM241385 inhibition binding on HEK293 membranes); settings: 1 nM [3H]ZM241385, 25° C., 1 h, Ki from IC50 by Cheng-Prusoff
human adenosine A2A receptor, sequence (P29274 whole entry): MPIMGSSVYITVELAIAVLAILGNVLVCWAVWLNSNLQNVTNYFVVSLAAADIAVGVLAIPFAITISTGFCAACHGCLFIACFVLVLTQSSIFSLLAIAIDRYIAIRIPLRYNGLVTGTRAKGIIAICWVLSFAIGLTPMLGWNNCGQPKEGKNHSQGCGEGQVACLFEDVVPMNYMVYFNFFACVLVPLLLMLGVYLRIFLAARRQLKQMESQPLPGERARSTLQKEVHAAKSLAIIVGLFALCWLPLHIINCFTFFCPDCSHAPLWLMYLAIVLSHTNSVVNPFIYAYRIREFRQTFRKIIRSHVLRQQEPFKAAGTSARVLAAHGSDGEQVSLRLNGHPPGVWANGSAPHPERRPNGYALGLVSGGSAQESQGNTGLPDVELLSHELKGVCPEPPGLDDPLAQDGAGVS
Experimental: as §1

[4] = molecular target: human CB1 receptor (Homo sapiens (Human), UniProt P21554); experiment: CB1 receptor antagonism, agonist-induced cAMP modulation (HTRF) in transfected CHO cells; assay type: cell-based; settings: inhibition of control response to 3 nM CP 55940, cAMP HTRF, read-out: Antag IC50
human CB1 receptor, sequence (P21554 whole entry): as the sequence (P21554 whole entry) above
Experimental: Receptor antagonism: Evaluation of the antagonist activity of compounds at the human CB1 receptor expressed in transfected CHO cells, determined by measuring their effects on agonist-induced cAMP modulation using the HTRF detection method.
The cells are suspended in HBSS buffer (Invitrogen) complemented with 20 mM HEPES (pH 7.4), then distributed in microplates at a density of 5.10^3 cells/well and preincubated for 5 min at room temperature in the presence of either of the following: HBSS (stimulated control), the reference antagonist AM 281 at 3 μM (basal control) or various concentrations (IC50 determination), or the test compounds.
Thereafter, the reference agonist CP 55940 and the adenylyl cyclase activator NKH 477 are added at respective final concentrations of 3 nM and 3 μM.
For basal control measurements, CP 55940 is omitted from the wells containing 3 μM AM 281.
Following 20 min incubation at 37° C., the cells are lysed and the fluorescence acceptor (D2-labeled cAMP) and fluorescence donor (anti-cAMP antibody labeled with europium cryptate) are added.
After 60 min at room temperature, the fluorescence transfer is measured at λex=337 nm and λem=620 and 665 nm using a microplate reader (Rubystar, BMG). The cAMP concentration is determined by dividing the signal measured at 665 nm by that measured at 620 nm (ratio).
The results are expressed as a percent inhibition of the control response to 3 nM CP 55940.
The standard reference antagonist is AM 281, which is tested in each experiment at several concentrations to generate a concentration-response curve from which its IC50 value is calculated.

human adenosine A1 receptor, sequence (P30542 whole entry): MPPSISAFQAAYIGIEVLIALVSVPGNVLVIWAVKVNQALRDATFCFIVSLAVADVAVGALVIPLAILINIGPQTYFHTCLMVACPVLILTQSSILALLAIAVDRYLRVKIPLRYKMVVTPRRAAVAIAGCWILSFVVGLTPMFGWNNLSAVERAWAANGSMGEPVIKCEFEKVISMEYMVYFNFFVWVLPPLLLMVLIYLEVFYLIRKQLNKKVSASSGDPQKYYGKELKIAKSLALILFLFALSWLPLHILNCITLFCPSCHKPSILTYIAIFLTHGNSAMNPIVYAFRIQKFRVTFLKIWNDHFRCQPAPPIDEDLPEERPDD

Compound	Ki ([1]; read-out: A1 pKi (converted))	Ki [2]	Ki ([3]; read-out: A2A pKi (converted))	IC50 [4]	A1 pKi [1]	A2A pKi [3]
C[C@@H]1CN(c2c(-c3ccccc3)nc(N)n3c(=O)n(CCC(F)(F)F)nc23)C[C@H](C)O1 [Example 1-1, 5-amino-8-[(cis)-2,6-dimethylmorpholin-4-yl]-7-phenyl-2-(3,3,3-trifluoropropyl)-[1,2,4]triazolo[4,3-c]pyrimidin-3-one]		33.9 µM		14.7 µM	<5.4	8.3
C[C@@H]1CN(c2c(-c3ccccc3)nc(N)n3c(=O)n(Cc4ccc(F)cn4)nc23)C[C@H](C)O1 [Example 1-14, 5-amino-8-[(cis)-2,6-dimethylmorpholin-4-yl]-2-[(5-fluoro-2-pyridyl)methyl]-7-phenyl-[1,2,4]triazolo[4,3-c]pyrimidin-3-one]		9.5 µM		7 µM	5.9	7.9
C[C@@H]1CC(c2c(-c3ccccc3)nc(N)n3c(=O)n(CCC(F)(F)F)nc23)=C[C@H](C)O1 (relative stereo) [Example 2-1, 5-amino-8-[(cis)-2,6-dimethyl-3,6-dihydro-2H-pyran-4-yl]-7-phenyl-2-(3,3,3-trifluoropropyl)-[1,2,4]triazolo[4,3-c]pyrimidin-3-one]		31.5 µM		72.2 µM	6.3	8.6

Second part, the compound after the results:

Ki ([1]; read-out: A1 pKi (converted))	Ki [2]	Ki ([3]; read-out: A2A pKi (converted))	IC50 [4]	A1 pKi [1]	A2A pKi [3]	Compound
0.0251 µM	5.5 µM	0.000251 µM	1.3 µM			Cc1cc(-c2c(-c3ccccc3)nc(N)n3c(=O)n(Cc4ccc(F)cn4)nc23)cc2cn[nH]c12 [Example 4-4, 5-amino-2-[(5-fluoro-2-pyridyl)methyl]-8-(7-methyl-1H-indazol-5-yl)-7-phenyl-[1,2,4]triazolo[4,3-c]pyrimidin-3-one]
	24.4 µM		68.6 µM	7.0	9.0	Cc1cc(-c2c(-c3ccccc3)nc(N)n3c(=O)n(Cc4ccc(F)cn4)nc23)cc2nc[nH]c12 [Example 4-5, 5-amino-2-[(5-fluoro-2-pyridyl)methyl]-8-(7-methyl-1H-benzimidazol-5-yl)-7-phenyl-[1,2,4]triazolo[4,3-c]pyrimidin-3-one]
	2.5 µM		2.6 µM	8.7	9.8	Cc1ocnc1Cn1nc2c(-c3cc(Cl)c4[nH]ncc4c3)c(-c3ccccc3)nc(N)n2c1=O [Example 4-11, 5-amino-8-(7-chloro-1H-indazol-5-yl)-2-[(5-methyloxazol-4-yl)methyl]-7-phenyl-[1,2,4]triazolo[4,3-c]pyrimidin-3-one]
	3.7 µM		2.4 µM	6.5	9.3	Cc1cc(-c2c(-c3ccc(F)cc3)nc(N)n3c(=O)n(CCC(F)(F)F)nc23)cc2ocnc12 [Example 4-1, 5-amino-7-(4-fluorophenyl)-8-(4-methyl-1,3-benzoxazol-6-yl)-2-(3,3,3-trifluoropropyl)-[1,2,4]triazolo[4,3-c]pyrimidin-3-one]
	39.6 µM		22.5 µM	7.2	9.3	Cc1ocnc1Cn1nc2c(-c3cc(C)c4[nH]ccc4c3)c(-c3ccccc3)nc(N)n2c1=O [Example 4-12, 5-amino-8-(7-methyl-1H-indol-5-yl)-2-[(5-methyloxazol-4-yl)methyl]-7-phenyl-[1,2,4]triazolo[4,3-c]pyrimidin-3-one]
	39.1 µM		15.5 µM	8.8	10.1	Cc1ocnc1Cn1nc2c(-c3cc(C)c4[nH]ncc4c3)c(-c3ccccc3)nc(N)n2c1=O [Example 4-9, 5-amino-8-(7-methyl-1H-indazol-5-yl)-2-[(5-methyloxazol-4-yl)methyl]-7-phenyl-[1,2,4]triazolo[4,3-c]pyrimidin-3-one]
